“And” between values parts separate entries of the source, which are not always exact repeats. Equal entries are not always repeated.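 A five-concentration, 48-hour dose response in 96-well plates underlies each endpoint, interpolated linearly between surrounding concentrations. GI50: concentration for 50% inhibition of growth. Definition used: TGI = concentration required for complete inhibition of growth.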
Key:
Test in all cases: NCI tumour cell line growth inhibition, 48 h
A498 renal = tested on: A498 renal
A549 NSCLC = tested on: A549 NSCLC
CAKI-1 renal = tested on: CAKI-1 renal
M19-MEL melanoma = tested on: M19-MEL melanoma
OVCAR-3 ovarian = tested on: OVCAR-3 ovarian
RPMI-8226 leukemia = tested on: RPMI-8226 leukemia
SF-295 CNS = tested on: SF-295 CNS
SK-MEL-2 melanoma = tested on: SK-MEL-2 melanoma
U251 CNS = tested on: U251 CNS
UO-31 renal = tested on: UO-31 renal

Compound: CCOC(OC1=C(C#N)CCC1)C(CC)[Se]c1ccccc1 (stereo not drawn)
- TGI (A498 renal): > 100 µM
- TGI (A549 NSCLC): > 100 µM
- TGI (CAKI-1 renal): > 100 µM
- TGI (M19-MEL melanoma): 30.3 µM
- TGI (OVCAR-3 ovarian): 58.5 µM
- TGI (RPMI-8226 leukemia): 49.8 µM
- TGI (SF-295 CNS): 52.7 µM
- TGI (SK-MEL-2 melanoma): 80.8 µM
- TGI (U251 CNS): 23.9 µM
- TGI (UO-31 renal): 73.6 µM

Compound: c1cncc(C2c3[nH]c4ccccc4c3CCN2CCN2CCCCC2)c1 (stereo not drawn)
- TGI (A498 renal): > 100 µM
- TGI (A549 NSCLC): > 100 µM
- TGI (CAKI-1 renal): > 100 µM
- TGI (M19-MEL melanoma): > 100 µM
- TGI (OVCAR-3 ovarian): > 100 µM
- TGI (RPMI-8226 leukemia): > 100 µM
- TGI (SF-295 CNS): > 100 µM
- TGI (U251 CNS): > 100 µM
- TGI (UO-31 renal): > 100 µM

Compound: O=C(N=Nc1c(O)[nH]c2ccccc12)c1ccccc1O
- TGI (A498 renal): 94.6 µM
- TGI (A549 NSCLC): > 100 µM
- TGI (M19-MEL melanoma): > 100 µM
- TGI (OVCAR-3 ovarian): > 100 µM
- TGI (RPMI-8226 leukemia): > 100 µM
- TGI (SF-295 CNS): > 100 µM
- TGI (SK-MEL-2 melanoma): 63.6 µM
- TGI (U251 CNS): 72.2 µM
- TGI (UO-31 renal): 79.9 µM

Compound: CC[C@@]1(OC(=O)CCC(=O)O)C(=O)OCc2c1cc1n(c2=O)Cc2cc3ccccc3nc2-1
- TGI (A498 renal): 1.27 µM
- TGI (A549 NSCLC): 5.54 µM
- TGI (CAKI-1 renal): 0.612 µM
- TGI (M19-MEL melanoma): 1.69 µM
- TGI (OVCAR-3 ovarian): 3.88 µM
- TGI (RPMI-8226 leukemia): 3.87 µM
- TGI (SF-295 CNS): 1.78 µM
- TGI (SK-MEL-2 melanoma): 4.96 µM
- TGI (U251 CNS): 2.18 µM
- TGI (UO-31 renal): 0.493 µM

Compound: CCCN(CCC)c1c([N+](=O)[O-])cc(S(N)(=O)=O)cc1[N+](=O)[O-]
- TGI (A549 NSCLC): 32.8 µM
- TGI (CAKI-1 renal): 26.4 µM
- TGI (M19-MEL melanoma): 40.6 µM
- TGI (OVCAR-3 ovarian): 31.8 µM
- TGI (RPMI-8226 leukemia): 76.4 µM
- TGI (SF-295 CNS): 32.3 µM
- TGI (SK-MEL-2 melanoma): 30.5 µM
- TGI (U251 CNS): 26.9 µM
- TGI (UO-31 renal): 34.8 µM

Compound: CC(O)C(NC(=O)C(CS)NC(=O)C(CO)NC(=O)C(CCCCN)NC(=O)C(Cc1c[nH]c2ccccc12)NC(=O)C(Cc1ccc(O)cc1)NC(=O)C(CS)NC(=O)C(N)Cc1ccccc1)C(N)=O (stereo not drawn)
- TGI (A498 renal): > 25 µM and 61.7 µM
- GI50 (A549 NSCLC): 18.7 µM
- TGI (A549 NSCLC): > 25 µM and 51.6 µM
- GI50 (CAKI-1 renal): 1.08 µM
- TGI (CAKI-1 renal): > 25 µM and 29.6 µM
- TGI (M19-MEL melanoma): 70.9 µM
- GI50 (OVCAR-3 ovarian): 21.3 µM
- TGI (OVCAR-3 ovarian): > 25 µM and 50 µM
- GI50 (RPMI-8226 leukemia): 22.3 µM
- TGI (RPMI-8226 leukemia): > 25 µM and 47.8 µM
- TGI (SF-295 CNS): > 25 µM
- GI50 (SK-MEL-2 melanoma): 22 µM
- TGI (SK-MEL-2 melanoma): > 25 µM and 49.5 µM
- TGI (U251 CNS): > 25 µM and 63.1 µM
- TGI (UO-31 renal): > 25 µM

Compound: Cn1nnnc1[N-]Cc1ccccc1.[Au+].c1ccc([PH+](c2ccccc2)c2ccccc2)cc1
- GI50 (A549 NSCLC): 21.2 µM
- TGI (A549 NSCLC): 71.3 µM
- GI50 (CAKI-1 renal): 2.29 µM
- TGI (CAKI-1 renal): 4.99 µM
- GI50 (M19-MEL melanoma): 3.32 µM
- TGI (M19-MEL melanoma): 25.3 µM
- GI50 (OVCAR-3 ovarian): 2.47 µM
- TGI (OVCAR-3 ovarian): 5.2 µM
- GI50 (RPMI-8226 leukemia): 1.23 µM
- TGI (RPMI-8226 leukemia): 4.37 µM
- GI50 (SF-295 CNS): 4.45 µM
- TGI (SF-295 CNS): 22.8 µM
- GI50 (SK-MEL-2 melanoma): 2.98 µM
- TGI (SK-MEL-2 melanoma): 9.45 µM
- GI50 (U251 CNS): 3.41 µM
- TGI (U251 CNS): 11.8 µM
- GI50 (UO-31 renal): 13 µM
- TGI (UO-31 renal): 25.7 µM

Compound: CCOC(=O)c1c2ccc(/C=C/C(=O)OC)ccc-2c(C(=O)OCC)c1N
- TGI (A498 renal): 49.4 µM
- TGI (A549 NSCLC): > 100 µM
- TGI (CAKI-1 renal): > 100 µM
- TGI (M19-MEL melanoma): > 100 µM
- TGI (OVCAR-3 ovarian): > 100 µM
- TGI (SF-295 CNS): > 100 µM
- TGI (SK-MEL-2 melanoma): > 100 µM
- TGI (UO-31 renal): > 100 µM

Compound: CC1=C(N2CC2)C(=O)c2nc3n(c2C1=O)CCC3O (stereo not drawn)
- TGI (A498 renal): 0.521 µM
- TGI (A549 NSCLC): 1.49 µM
- TGI (CAKI-1 renal): 0.777 µM
- TGI (M19-MEL melanoma): 3.57 µM
- TGI (OVCAR-3 ovarian): 0.763 µM
- TGI (RPMI-8226 leukemia): 10.2 µM
- TGI (SF-295 CNS): 0.512 µM
- TGI (SK-MEL-2 melanoma): 1.4 µM
- TGI (U251 CNS): 0.962 µM
- TGI (UO-31 renal): 4.18 µM

Compound: COC(=O)/C(=N/NC(C)(C)C)C(C(=O)C=C(C)C)C(=O)C(=O)Nc1ccc(Cl)cc1C (stereo not drawn)
- TGI (A498 renal): > 100 µM
- TGI (A549 NSCLC): > 100 µM
- TGI (CAKI-1 renal): > 100 µM
- TGI (M19-MEL melanoma): > 100 µM
- TGI (OVCAR-3 ovarian): > 100 µM
- TGI (RPMI-8226 leukemia): > 100 µM
- TGI (SF-295 CNS): > 100 µM
- TGI (SK-MEL-2 melanoma): > 100 µM
- TGI (U251 CNS): > 100 µM
- TGI (UO-31 renal): > 100 µM
